Starred links: 1 amine or outer side, 2 acyl side, 3 side chain; linkers in the order of their positions; H or OH if unused. Positions of bridges follow the written chain, without caps; N, C: chain ends. Residues, ends and D or L forms follow the SMILES beside them. *: point of attachment. X1 = NC(=O)[C@H](CCCCNC(=O)CCCC[C@@H]1SC[C@@H]2NC(=O)N[C@@H]21)NC(=O)CCC(=O)NCCCOCCOCCOCCCN*; mXylylene = c1cc(C[*:1])cc(C[*:2])c1
Biological target: T1, GIPR (Homo sapiens, UniProt P48546)
T1 construct: host or cells: CHO-K1
T1 sequence (P48546 22-466): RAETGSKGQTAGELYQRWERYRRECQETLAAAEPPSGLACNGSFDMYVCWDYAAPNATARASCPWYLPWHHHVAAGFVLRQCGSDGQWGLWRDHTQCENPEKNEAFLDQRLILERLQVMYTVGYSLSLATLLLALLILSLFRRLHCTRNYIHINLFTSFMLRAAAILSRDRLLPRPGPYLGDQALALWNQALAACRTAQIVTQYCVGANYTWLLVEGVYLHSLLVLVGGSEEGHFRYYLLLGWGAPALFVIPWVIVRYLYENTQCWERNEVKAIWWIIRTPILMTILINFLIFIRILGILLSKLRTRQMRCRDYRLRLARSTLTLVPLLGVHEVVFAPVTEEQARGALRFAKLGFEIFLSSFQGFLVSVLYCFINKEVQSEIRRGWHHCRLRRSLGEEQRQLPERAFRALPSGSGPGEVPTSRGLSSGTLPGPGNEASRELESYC
Assay: FACS binding assay
Settings: CHO-K1-hGIPR cells, various concentrations of biotinylated compound, 4°C for 1 hour, APC-Streptavidin detection
Experimental: In order to determine binding of compounds according to the present invention to GIPR-expressing cells, a FACS binding assay is established.
CHO-K1-hGIPR cells (GenScript Biotech, #M00486) are cultured in Ham's F12 medium (Sigma-Aldrich, #N4888) including 10% fetal calf serum (FCS), 2 mM L-glutamine, 100 U/mL penicillin, 100 µg/mL streptomycin, 200µg/mL Zeocin and 100µg/mL HygromycinB. Cells are detached with Accutase (Biolegend, #BLD-423201) and washed in FACS buffer (PBS including 1% FCS). Cells are diluted in FACS buffer to a final concentration of 500.000 cells per mL. 200 µL of the cell suspension is transferred to a u-shaped non-binding 96-well plate (Greiner) and cells are washed in ice-cold FACS buffer.
For EC50 determination, cells are incubated with various concentrations of biotinylated compound (H-Met-Tyr-Asp-Trp-Trp-Pro-Glu-Leu-[Cys(3MeBn)-Ala-Leu-Ile-Cys]-Ttds-Lys(Bio)-NH2) (SEQ ID NO: 3) at 4°C for 1 hour. […] For IC50 determination, cells are incubated with 20 nM of the biotinylated compound in the presence of increasing concentrations of non-labeled test compounds at 4°C for 1 hour. Cells are washed twice in FACS buffer. […]
Cells are analyzed in an Attune NxT flow cytometer. Median fluorescence intensities (MFI) of the APC/Cy5-channel are calculated by Attune NxT software. […]

For `CC[C@H](C)[C@@H]1NC(=O)[C@H](CC(C)C)NC(=O)[C@H](C)NC(=O)[C@@H](NC(=O)[C@H](CC(C)C)NC(=O)[C@H](CCC(=O)O)NC(=O)[C@@H]2CCCN2C(=O)[C@H](Cc2c[nH]c3ccccc23)NC(=O)[C@H](Cc2c[nH]c3ccccc23)NC(=O)[C@H](CC(=O)O)NC(=O)[C@H](Cc2ccc(O)cc2)NC(=O)[C@@H](N)CCSC)CSCc2cccc(c2)CSC[C@@H](C(=O)NCCCOCCOCCOCCCNC(=O)CCC(=O)N[C@@H](CCCCNC(=O)CCCC[C@@H]2SC[C@@H]3NC(=O)N[C@@H]32)C(N)=O)NC1=O` [biotinylated compound, H-Met-Tyr-Asp-Trp-Trp-Pro-Glu-Leu-[Cys(3MeBn)-Ala-Leu-Ile-Cys]-Ttds-Lys(Bio)-NH2] (H-MYDWWPELCALIC-X1; linker 9-13 via mXylylene), the EC50 was 3.16 nM.

From patent EP4455159A1, “GASTRIC INHIBITORY PEPTIDE RECEPTOR LIGANDS WITH BIO-DISTRIBUTION MODIFIER” (3B Pharmaceuticals GmbH, priority 2023, dated 2024)
